Structures can show the parent of a compound that is named as a salt.
What was measured:
[1] = biological target: T1, Na^+ /H^+ Exchanger of Rabbit Erythrocytes (Oryctolagus cuniculus, UniProt P23791); experiment: Inhibition of the Na^+ /H^+ Exchanger of Rabbit Erythrocytes (Na^+ influx by flame photometry); type: cell-based, rabbit (New Zealand White); conditions: cholesterol-fed rabbits, pH 7.4, 37° C.
T1 construct: The blood was removed from the aural arteries; endogenous in cells; host or cells: erythrocytes of cholesterol-fed New Zealand White rabbits (whole blood samples)
Description: Inhibition of the Na^+ /H^+ Exchanger of Rabbit Erythrocytes
New Zealand White rabbits (Ivanovas) received a standard diet containing 2% cholesterol for six weeks in order to activate the Na^+ /H^+ exchange and thus to be able to determine, by flame photometry, the Na^+ influx into the erythrocytes via Na^+ /H^+ exchange. The blood was removed from the aural arteries and rendered incoagulable using 25 IU of potassium heparin. A part of each sample was used for the duplicate determination of the hematocrit by means of centrifugation. Aliquots of in each case 100 μl were used for measuring the initial Na^+ content of the erythrocytes.
In order to determine the amiloride-sensitive sodium influx, 100 μl of each blood sample were in each case incubated, at pH 7.4 and 37° C., in 5 ml of a hyperosmolar salt/sucrose medium (mmol/l: 140 NaCl, 3 KCl, 150 sucrose, 0.1 ouabain, 20 tris(hydroxymethyl)aminomethane). The erythrocytes were then washed three times with ice-cold MgCl2 /ouabain solution ([…]: 112 MgCl2, 0.1 ouabain) and hemolyzed in 2.0 ml of distilled water. The intracellular sodium content was determined by flame photometry.
The net influx of Na^+ was calculated from the difference between the initial sodium values and the sodium content of the erythrocytes following incubation. The amiloride-inhibitable sodium influx was calculated from the difference in the sodium content of the erythrocytes following incubation with and without amiloride 3×10^-4 mol/l. This method was also employed in the case of the compounds according to the invention.

rat hearts = conditions: isolated rat hearts, cited from earlier work
cardiac arrhythmia = conditions: cited from earlier work

T1 sequence (P23791 whole entry): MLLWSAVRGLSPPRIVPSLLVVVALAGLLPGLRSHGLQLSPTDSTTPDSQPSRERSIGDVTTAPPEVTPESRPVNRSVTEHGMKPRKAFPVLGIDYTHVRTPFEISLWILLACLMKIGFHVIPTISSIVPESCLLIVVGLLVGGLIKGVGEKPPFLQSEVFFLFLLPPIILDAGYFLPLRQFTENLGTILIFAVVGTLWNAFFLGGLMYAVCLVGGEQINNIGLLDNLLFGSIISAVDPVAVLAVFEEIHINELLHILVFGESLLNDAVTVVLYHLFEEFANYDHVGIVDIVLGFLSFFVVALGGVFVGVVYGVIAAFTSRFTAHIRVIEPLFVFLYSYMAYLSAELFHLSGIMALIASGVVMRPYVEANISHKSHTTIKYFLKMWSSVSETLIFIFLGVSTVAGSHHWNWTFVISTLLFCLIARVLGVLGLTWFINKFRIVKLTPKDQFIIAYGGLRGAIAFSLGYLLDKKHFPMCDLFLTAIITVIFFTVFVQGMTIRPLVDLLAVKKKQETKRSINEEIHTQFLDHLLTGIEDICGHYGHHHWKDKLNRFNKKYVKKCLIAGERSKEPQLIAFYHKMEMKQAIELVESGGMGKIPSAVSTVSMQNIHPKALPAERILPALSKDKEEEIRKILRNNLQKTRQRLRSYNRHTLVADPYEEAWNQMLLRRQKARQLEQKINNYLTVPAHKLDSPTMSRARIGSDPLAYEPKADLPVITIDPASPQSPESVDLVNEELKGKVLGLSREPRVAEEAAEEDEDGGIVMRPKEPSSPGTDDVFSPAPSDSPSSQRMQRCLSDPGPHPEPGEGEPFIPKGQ

SMILES	IC50 [1] [nM]	further results
N=C(N)NC(=O)c1cccc(Cl)c1Cl [Example 1, 2,3-Dichlorobenzoylguanidine hydrochloride]	> 1000	
N=C(N)NC(=O)c1cccc(C(F)(F)F)c1F [Example 2, 2-Fluoro-3-trifluoromethylbenzoylguanidine hydrochloride]	2000	
N=C(N)NC(=O)c1ccc(Cl)cc1Cl [Example 3, 2,4-Dichlorobenzoylguanidine hydrochloride]	8000	
N=C(N)NC(=O)c1ccc(C(F)(F)F)cc1F [Example 4, 2-Fluoro-4-trifluoromethylbenzoylguanidine hydrochloride]	3000	
Cc1ccc(C)c(C(=O)NC(=N)N)c1 [Example 5, 2,5-Dimethylbenzoylguanidine hydrochloride]	2000	
N=C(N)NC(=O)c1cc(Cl)ccc1Cl [Example 6, 2,5-Dichlorobenzoylguanidine hydrochloride]	1500	
N=C(N)NC(=O)c1cc(C(F)(F)F)ccc1C(F)(F)F [Example 7, 2,5-Bis(trifluoromethyl)benzoylguanidine hydrochloride]	160	
N=C(N)NC(=O)c1cc(C(F)(F)F)ccc1F [Example 8, 2-Fluoro-5-trifluoromethylbenzoylguanidine hydrochloride]	700	
N=C(N)NC(=O)c1cc(C(F)(F)F)ccc1Cl [Example 9, 2-Chloro-5-trifluoromethylbenzoylguanidine hydrochloride]	160	
N=C(N)NC(=O)c1cc(I)cc(C(F)(F)F)c1F [Example 10, 2-Fluoro-5-iodo-3-trifluoromethylbenzoylguanidine hydrochloride]	90	
N=C(N)NC(=O)c1nc(Cl)c(N)nc1N [amiloride, Amiloride]		suppression of artificially induced ventricular fibrillation (rat hearts): completely suppress; undesirable side effects when treating cardiac arrhythmia (cardiac arrhythmia; accompanying the antiarrhythmic effect): hypotensive and saluretic effects; antiarrhythmic effect (cardiac arrhythmia; as antiarrhythmic agent): only weakly expressed
CCN(c1nc(N)c(C(=O)NC(=N)N)nc1Cl)C(C)C [ethylisopropylamiloride, Ethylisopropylamiloride]		potency relative to amiloride in ventricular fibrillation model (rat hearts; compared with amiloride): even more potent than amiloride

From patent US5965744A, “Ortho-substituted benzoylguanidines, including composition and methods of using them” (priority 1993, dated 1999)
